Data published in ChEMBL document CHEMBL3779879, “Structural hybridization of three aminoglycoside antibiotics yields a potent broad-spectrum bactericide that eludes bacterial resistance enzymes” (2016).
In brackets after ≈: the same amount, converted by molar mass.

Assays:
Type in all cases: functional
Pseudomonas aeruginosa [1] = experiment: Antibacterial activity against Pseudomonas aeruginosa ATCC 27853 expressing APH(3')-IIa
Klebsiella pneumoniae = experiment: Antibacterial activity against Klebsiella pneumoniae ATCC 10031
Staphylococcus aureus [2] = experiment: Antibacterial activity against Staphylococcus aureus ATCC 29213
Enterobacter cloacae = experiment: Antibacterial activity against Enterobacter cloacae expressing APH(3')-I, ANT(2'')-I, AAC(6')
Staphylococcus aureus [3] = experiment: Antibacterial activity against Staphylococcus aureus expressing AAC(6')/APH(2'')
Staphylococcus aureus [4] = experiment: Antibacterial activity against Staphylococcus aureus expressing APH(3'/5'')-III
Acinetobacter baumannii [5] = experiment: Antibacterial activity against Acinetobacter baumannii
Escherichia coli [6] = experiment: Antibacterial activity against Escherichia coli expressing APH(3')-Ib
Staphylococcus aureus [7] = experiment: Antibacterial activity against Staphylococcus aureus expressing ANT(4')-I
Pseudomonas aeruginosa [8] = experiment: Antibacterial activity against Pseudomonas aeruginosa expressing ANT(4')-II
Escherichia coli [9] = experiment: Antibacterial activity against Escherichia coli expressing A-site methyltransferase ArmA
Escherichia coli [10] = experiment: Antibacterial activity against Escherichia coli ATCC 25922
Escherichia coli [11] = experiment: Antibacterial activity against Escherichia coli expressing ANT(2'')-I
Pseudomonas aeruginosa [12] = experiment: Antibacterial activity against Pseudomonas aeruginosa expressing AAC(6')-II
Escherichia coli [13] = experiment: Antibacterial activity against Escherichia coli expressing AAC(3)-IV
Acinetobacter baumannii [14] = experiment: Antibacterial activity against Acinetobacter baumannii expressing AAC(3)-I, APH(3')-VI, ANT(2'')-I

Compound | MIC (Pseudomonas aeruginosa [1]) [µg/mL] | MIC (Klebsiella pneumoniae) [µg/mL] | MIC (Staphylococcus aureus [2]) [µg/mL] | MIC (Enterobacter cloacae) [µg/mL] | MIC (Staphylococcus aureus [3]) [µg/mL] | MIC (Staphylococcus aureus [4]) [µg/mL] | MIC (Acinetobacter baumannii [5]) [µg/mL] | MIC (Escherichia coli [6]) [µg/mL] | MIC (Staphylococcus aureus [7]) [µg/mL] | MIC (Pseudomonas aeruginosa [8]) [µg/mL] | MIC (Escherichia coli [9]) [µg/mL] | MIC (Escherichia coli [10]) [µg/mL] | MIC (Escherichia coli [11]) [µg/mL] | MIC (Pseudomonas aeruginosa [12]) [µg/mL] | MIC (Escherichia coli [13]) [µg/mL] | MIC (Acinetobacter baumannii [14]) [µg/mL]
NCC[C@H](O)C(=O)N[C@@H]1C[C@H](N)[C@@H](O[C@H]2O[C@H](CO)[C@@H](O)[C@H](O)[C@H]2N)[C@H](O[C@@H]2O[C@H](CO)[C@@H](O[C@H]3O[C@@H](CN)[C@@H](O)[C@H](O)[C@H]3N)[C@H]2O)[C@H]1O | 8 (≈ 11.2 µM) | 1 (≈ 1.4 µM) | 2 (≈ 2.79 µM) | 8 (≈ 11.2 µM) | 32 (≈ 44.6 µM) | 32 (≈ 44.6 µM) | 2 (≈ 2.79 µM) | 2 (≈ 2.79 µM) | > 64 | 4 (≈ 5.58 µM) | 4 (≈ 5.58 µM) | 2 (≈ 2.79 µM) | 8 (≈ 11.2 µM) | 8 (≈ 11.2 µM) | 4 (≈ 5.58 µM) | 64 (≈ 89.3 µM)
NCC[C@H](O)C(=O)N[C@@H]1C[C@H](N)[C@@H](O[C@H]2O[C@H](CN)[C@@H](O)[C@H](O)[C@H]2N)[C@H](O[C@@H]2O[C@H](CO)[C@@H](O)[C@H]2O)[C@H]1O | > 32 | 1 (≈ 1.8 µM) | 8 (≈ 14.4 µM) | 32 (≈ 57.6 µM) | > 32 | > 32 | 1 (≈ 1.8 µM) | 1 (≈ 1.8 µM) | > 32 | > 32 | 2 (≈ 3.6 µM) | 2 (≈ 3.6 µM) | 4 (≈ 7.2 µM) | > 32 | 2 (≈ 3.6 µM) | > 32
NCC1=CC[C@@H](N)[C@@H](O[C@H]2[C@H](O[C@@H]3O[C@H](CO)[C@@H](O)[C@H]3O)[C@@H](O)[C@H](N)C[C@@H]2N)O1 | 16 (≈ 38.1 µM) | 16 (≈ 38.1 µM) | 16 (≈ 38.1 µM) | > 64 | > 64 | > 64 | > 64 | 64 (≈ 152 µM) | 16 (≈ 38.1 µM) | 64 (≈ 152 µM) | 64 (≈ 152 µM) | 64 (≈ 152 µM) | > 64 | > 64 | > 64 | > 64
NCC[C@H](O)C(=O)N[C@@H]1C[C@H](N)[C@@H](O[C@H]2OC(CN)=CC[C@H]2N)[C@H](O[C@@H]2O[C@H](CO)[C@@H](O)[C@H]2O)[C@H]1O | 4 (≈ 7.67 µM) | 4 (≈ 7.67 µM) | 8 (≈ 15.3 µM) | > 64 | 16 (≈ 30.7 µM) | 16 (≈ 30.7 µM) | 4 (≈ 7.67 µM) | 4 (≈ 7.67 µM) | 8 (≈ 15.3 µM) | 8 (≈ 15.3 µM) | 8 (≈ 15.3 µM) | 8 (≈ 15.3 µM) | 8 (≈ 15.3 µM) | 16 (≈ 30.7 µM) | 8 (≈ 15.3 µM) | 8 (≈ 15.3 µM)
N[C@@H]1CC=C(CO)O[C@@H]1O[C@H]1[C@H](O[C@@H]2O[C@H](CO)[C@@H](O)[C@H]2O)[C@@H](O)[C@H](N)C[C@@H]1N | > 64 | > 64 | > 64 | > 64 | > 64 | > 64 | > 64 | > 64 | > 64 | > 64 | > 64 | > 64 | > 64 | > 64 | > 64 | > 64
NCC1O[C@H](O[C@H]2[C@@H](O)[C@H](O[C@H]3[C@H](O)[C@@H](N)C[C@@H](N)[C@@H]3O[C@H]3O[C@H](CN)[C@@H](O)[C@H](O)[C@H]3N)O[C@@H]2CO)[C@H](N)[C@@H](O)[C@@H]1O (stereo not given in full) | 32 (≈ 52.1 µM) | 0.5 (≈ 0.813 µM) | 0.5 (≈ 0.813 µM) | > 64 | > 64 | > 64 | 1 (≈ 1.63 µM) | 64 (≈ 104 µM) | > 64 | 8 (≈ 13 µM) | 1 (≈ 1.63 µM) | 2 (≈ 3.25 µM) | 2 (≈ 3.25 µM) | 8 (≈ 13 µM) | 2 (≈ 3.25 µM) | > 64
CNCC1=CC[C@H](N)[C@H](O[C@H]2[C@H](O[C@@H]3O[C@H](CO)[C@@H](O[C@@H]4O[C@H](CN)[C@H](O)[C@@H](O)[C@@H]4N)[C@H]3O)[C@@H](O)[C@H](N)C[C@@H]2N)O1 | 2 (≈ 3.36 µM) | 2 (≈ 3.36 µM) | 1 (≈ 1.68 µM) | > 64 | > 64 | 16 (≈ 26.9 µM) | 4 (≈ 6.73 µM) | > 64 | 2 (≈ 3.36 µM) | 4 (≈ 6.73 µM) | 16 (≈ 26.9 µM) | 8 (≈ 13.5 µM) | 16 (≈ 26.9 µM) | > 64 | 8 (≈ 13.5 µM) | > 64
NCC[C@H](O)C(=O)N[C@@H]1C[C@H](N)[C@@H](O[C@H]2OC(CN)=CC[C@H]2N)[C@H](O[C@@H]2O[C@H](CO)[C@@H](O[C@@H]3O[C@H](CN)[C@H](O)[C@@H](O)[C@@H]3N)[C@H]2O)[C@H]1O | 0.25 (≈ 0.367 µM) | 0.5 (≈ 0.733 µM) | 0.5 (≈ 0.733 µM) | 8 (≈ 11.7 µM) | 2 (≈ 2.93 µM) | 1 (≈ 1.47 µM) | 0.5 (≈ 0.733 µM) | 0.25 (≈ 0.367 µM) | 1 (≈ 1.47 µM) | 0.5 (≈ 0.733 µM) | 1 (≈ 1.47 µM) | 0.5 (≈ 0.733 µM) | 4 (≈ 5.87 µM) | 0.5 (≈ 0.733 µM) | 1 (≈ 1.47 µM) | 1 (≈ 1.47 µM)
CN[C@@H](C)[C@@H]1CC[C@@H](N)[C@@H](O[C@H]2[C@H](O)[C@@H](O[C@H]3OC[C@](C)(O)[C@H](NC)[C@H]3O)[C@H](N)C[C@@H]2N)O1 | 0.5 (≈ 1.05 µM) | 0.25 (≈ 0.523 µM) | 0.5 (≈ 1.05 µM) | 32 (≈ 67 µM) | > 64 | 0.5 (≈ 1.05 µM) | 2 (≈ 4.19 µM) | 0.25 (≈ 0.523 µM) | 0.5 (≈ 1.05 µM) | 2 (≈ 4.19 µM) | > 64 | 0.5 (≈ 1.05 µM) | 64 (≈ 134 µM) | 32 (≈ 67 µM) | 16 (≈ 33.5 µM) | > 64
NC[C@H]1O[C@@H](O[C@H]2[C@@H](O)[C@H](O[C@@H]3[C@@H](O)[C@H](N)C[C@H](N)[C@H]3O[C@@H]3OC(CO)=CC[C@@H]3N)O[C@@H]2CO)[C@@H](N)[C@H](O)[C@H]1O (stereo in doubt) | > 64 | > 64 | 8 (≈ 13.8 µM) | > 64 | > 64 | > 64 | > 64 | > 64 | 16 (≈ 27.5 µM) | > 64 | > 64 | > 64 | > 64 | > 64 | > 64 | > 64
NCC1=CC[C@H](N)[C@H](O[C@H]2[C@H](O[C@@H]3O[C@H](CO)[C@@H](O[C@@H]4O[C@H](CN)[C@H](O)[C@@H](O)[C@@H]4N)[C@H]3O)[C@@H](O)[C@H](N)C[C@@H]2N)O1 (stereo in doubt) | 0.5 (≈ 0.861 µM) | 0.5 (≈ 0.861 µM) | 1 (≈ 1.72 µM) | > 64 | 64 (≈ 110 µM) | 16 (≈ 27.6 µM) | 1 (≈ 1.72 µM) | > 64 | 1 (≈ 1.72 µM) | 1 (≈ 1.72 µM) | 2 (≈ 3.44 µM) | 2 (≈ 3.44 µM) | 2 (≈ 3.44 µM) | > 64 | 8 (≈ 13.8 µM) | > 64
NCC[C@H](O)C(=O)N[C@@H]1C[C@H](N)[C@@H](O[C@H]2O[C@H](CN)[C@@H](O)[C@H](O)[C@H]2O)[C@H](O)[C@H]1O[C@H]1O[C@H](CO)[C@@H](O)[C@H](N)[C@H]1O [AMIKACIN] | 2 (≈ 3.42 µM) | 0.5 (≈ 0.854 µM) | 2 (≈ 3.42 µM) | 64 (≈ 109 µM) | 64 (≈ 109 µM) | 8 (≈ 13.7 µM) | 2 (≈ 3.42 µM) | 0.5 (≈ 0.854 µM) | 64 (≈ 109 µM) | 32 (≈ 54.6 µM) | > 64 | 2 (≈ 3.42 µM) | 4 (≈ 6.83 µM) | 4 (≈ 6.83 µM) | 2 (≈ 3.42 µM) | > 64
NC[C@@H]1O[C@H](O[C@H]2[C@@H](O)[C@H](O[C@@H]3[C@@H](O)[C@H](N)C[C@H](N)[C@H]3O[C@H]3O[C@H](CO)[C@@H](O)[C@H](O)[C@H]3N)O[C@@H]2CO)[C@H](N)[C@@H](O)[C@@H]1O [PAROMOMYCIN] | > 64 | 2 (≈ 3.25 µM) | 2 (≈ 3.25 µM) | > 64 | > 64 | > 64 | 4 (≈ 6.5 µM) | > 64 | > 64 | > 64 | 4 (≈ 6.5 µM) | 4 (≈ 6.5 µM) | 4 (≈ 6.5 µM) | > 64 | 8 (≈ 13 µM) | > 64
NC[C@H]1O[C@H](O[C@H]2[C@H](O[C@@H]3O[C@H](CO)[C@@H](O)[C@H]3O)[C@@H](O)[C@H](N)C[C@@H]2N)[C@H](N)[C@@H](O)[C@@H]1O [RIBOSTAMYCIN] | > 64 | 2 (≈ 4.4 µM) | 16 (≈ 35.2 µM) | > 64 | > 64 | > 64 | 8 (≈ 17.6 µM) | > 64 | > 64 | > 64 | 8 (≈ 17.6 µM) | 8 (≈ 17.6 µM) | 8 (≈ 17.6 µM) | > 64 | > 64 | > 64
CN[C@@H]1[C@@H](O)[C@@H](O[C@@H]2[C@@H](O)[C@H](O[C@H]3OC(CN)=CC[C@H]3N)[C@@H](N)C[C@H]2N)OC[C@]1(C)O [SISOMICIN] | 0.5 (≈ 1.12 µM) | 0.25 (≈ 0.559 µM) | 0.5 (≈ 1.12 µM) | > 64 | > 64 | 0.25 (≈ 0.559 µM) | 0.5 (≈ 1.12 µM) | 0.25 (≈ 0.559 µM) | 1 (≈ 2.23 µM) | 1 (≈ 2.23 µM) | > 64 | 0.5 (≈ 1.12 µM) | 64 (≈ 143 µM) | 32 (≈ 71.5 µM) | 32 (≈ 71.5 µM) | > 64
